Experimental data as given in US20250034139A1, “AMINE COMPOUNDS HAVING ANTI-INFLAMMATORY, ANTIFUNGAL, ANTIPARASITIC, AND ANTICANCER ACTIVITY” (PHARMA CINQ, LLC, priority 2013, published 2025).

Legend:
[1] = tested on: EAE induced by PLP139-151; experiment: Example G: Experimental Autoimmune Encephalitis (EAE) mouse model of multiple sclerosis; format: in vivo
PC-3 cells = experiment: Example P: PC-3 human hormone-independent prostate cancer xenografts in nude mice; format: in vivo
Procedure: Standard models for prostate cancer use subcutaneous xenografts of human prostate cancer cell line. Local measurable tumors are produced at the site of injection of the cells, and they metastasize to critical tissues such as the bones, lungs and liver. Mortality in this model is due to metastases impairing tissue function. Compounds of the invention were assessed for inhibition of tumor growth and reduction or delay of mortality in the PC-3 prostate cancer model, which mimics an advanced, androgen-independent stage of prostate cancer.
10 female nude mice (female Hsd:athymic nude-Foxn1^nu) received PC-3 cells (5×10^6 per mouse in 0.1 mL PBS) by subcutaneous injection into the right hind flank. […] Mice received AC or vehicle (saline) via intraperitoneal (i.p.) injection once daily until day 79. • 1. […] Compound AC: 120 μmol/kg/day.
Tumors were measured with calipers twice per week, and body weights and mortality were also monitored.

[2] = tested on: Vit-D3 activated THP-1 cells; experiment: Example B: viable cell count, AC vs chloroquine, +/- LPS; format: cell-based, Human; details: LPS-stimulated and basal THP-1 cells, 5 hours
Procedure: (§1) • 1. Vit-D3 activated THP-1 cells (0.5×10^6 cells in 2 ml) were transferred to the wells of a 24-well dish • 2. Compound AC was added at a concentration of 0.5 μM, 1.0 μM or 5.0 μM • 3. […] LPS from E. coli 0111:B4 (1 ng/ml final concentration) was added to some wells • 5. After 5 hours viable cell count, Acridine Orange (A.O.) uptake and JC-1 mitochondrial loading were determined by fluorescence-activated cell sorting (FACS)
(§2) THP-1 cells (p39) treated with 0.1 μM vit-D3 (100 μM) in DMSO] for 3 days were counted, spun down, resuspended in serum-free RPMI (Lonza 12-115F) and transferred to the wells of two 24-well dishes (0.5×10^6 cells in 2 ml). […] Crude-LPS from E. coli 0111:B4 was added to some wells (1 ng/ml final conc) and the plates placed in a 37 C incubator. 1 μl of Baf A1 (50 nM final conc) was added to one well (no LPS) at T=4 hours to serve as a compensation control for Acridine Orange loading. After 5 hours, 500 μl aliquots of cells were transferred to FACS tubes and viable cell counts, A.O. loading and JC-1 accumulation determined by FACS.
The tubes were washed twice in DPBS, resuspended in 500 μl DPBS and acquired on the FACSCalibur.

[3] = tested on: Vit-D3 activated THP-1 cells; experiment: Example B: JC-1 mitochondrial loading (mitochondrial membrane potential); format: cell-based, Human; details: 5 hours
Procedure: In this experiment, cell viability was monitored and uptake and accumulation of acridine orange, a lysosomotropic fluorescent dye, was used to assess lysosomal acidification and integrity. JC-1 dye was used to measure effects of test compounds on mitochondrial membrane potential (MMP); reduction of MMP is a feature of apoptotic cell death.
as §1, with “Compound AC was added at a concentration of 0.5 μM, 1.0 μM or 5.0 μM • 3.” left out
as §2

[4] = AC 120 μmol/kg/day i.p. once daily, group of 5

Row | SMILES | EAE Score on Day 46 ([1]; 60 μmol/kg by oral gavage from Day 14, score 0-5) | EAE Score on Day 14 (Before Treatment) ([1]; baseline, score 0-5) | mean body weight at end of study (PC-3 cells; AC 120 μmol/kg/day i.p.) [g] | mice regressed more than 50% from the initial tumor size (PC-3 cells; AC 120 μmol/kg/day i.p.) | mice with no detectable tumors at end of study (complete regressions) (PC-3 cells; AC 120 μmol/kg/day i.p.) | day of death of the one mouse that died (PC-3 cells; [4]) [days] | number of mice surviving until the study was terminated on day 79 (PC-3 cells; [4]) | tumor size, average % of initial size (PC-3 cells; day 77, AC 120 μmol/kg/day i.p.) [%] | initial group body weight (PC-3 cells; pretreatment) [g] | potency of AC relative to chloroquine for inactivating macrophages (THP-1 cells) [2] | JC-1 Red cells (functional mitochondria) percent change from DMSO (no LPS), Mean ± SE ([3]; 0.1 μM AC, 1 ng/ml LPS) [%] | JC-1 Red cells (functional mitochondria) percent change from DMSO (no LPS), Mean ± SE ([3]; 0.1 μM AC, No LPS) [%] | JC-1 Red cells (functional mitochondria) percent change from DMSO (no LPS), Mean ± SE ([3]; 0.5 μM AC, 1 ng/ml LPS) [%] | JC-1 Red cells (functional mitochondria) percent change from DMSO (no LPS), Mean ± SE ([3]; 0.5 μM AC, No LPS) [%] | JC-1 Red cells (functional mitochondria) percent change from DMSO (no LPS), Mean ± SE ([3]; 1.0 μM AC, 1 ng/ml LPS) [%] | JC-1 Red cells (functional mitochondria) percent change from DMSO (no LPS), Mean ± SE ([3]; 1.0 μM AC, No LPS) [%]
1 | CCCCCCOc1cccc(OCCCNc2ccnc3ccccc23)c1 [AZ, N-{3-[3-(Hexyloxy)phenoxy]propyl}quinolin-4-amine] | 2.50 ± 0.29 | 0.83 ± 0.41 | – | – | – | – | – | – | – | – | – | – | – | – | – | –
2 | CCCCCCOc1cccc(CNc2ccnc3ccccc23)c1 [Compound AC, N-[3-(Hexyloxy)benzyl]quinolin-4-amine] | – | – | 28.9 ± 1.3 | one | two | 65 | 4 | 949 | 26.8 ± 0.5 | approximately 100 fold | −1.66 ± 0.96 | 1.18 ± 0.91 | −7.19 ± 1.52 | −4.39 ± 1.40 | −16.41 ± 2.60 | −10.40 ± 2.08
